Measured values from patent US10053422B2, “Compounds for the treatment of mTOR pathway related diseases” (Pitney Pharmaceuticals Pty Limited, priority 2012, dated 2018).
Entries after “also recorded” stand apart in the source; their conditions may differ. Read-outs that look alike come from different tables or passages of the source.

Tests used:
[1] = tested on: HEK (Human Embryonic Kidney); experiment: SRB cell proliferation assay, HEK; format: cell-based
Method: (§1) Cell proliferation was assessed using the sulforhodamine B (SRB) assay. Cells seeded in 96-well plate (2,000-3,000 cell/well) were treated with MPL (0, 1, 5, 10, 25, 50 and 100 μmol/L) for 72 h. Cells were then fixed, washed and stained with 100 μl of 0.4% (w/v) SRB dissolved in 1% acetic acid. Unbound dye was removed by five washes with 1% acetic acid before air drying. Bound SRB was solubilized with 100 μl of 10 mM Tris base (pH 10.5) and the absorbance read at 570 nm. Exactly the same procedure was used to assess MPL-SO2. Both agents were dissolved in ethanol and diluted with media to give the final concentrations required for cell culture assays.

1A9 cells = experiment: SRB cell proliferation assay, 1A9; format: cell-based; conditions: Homo sapiens
Method: as §1

[2] = tested on: PARP-1 in OVCAR-3 and A2780 cells; experiment: Western blot of PARP and cleaved PARP; format: cell-based, human; conditions: MPL 0, 5, 10, 25 μM; 24, 48 or 72 h
Method: OVCAR-3 and A2780 cells grown under cell culture conditions were incubated with various concentrations of MPL [0, 5, 10, 25 μM] for 24, 48 or 72 hours. Cell lysates were then prepared and analysed by western blotting for the determination of PARP and cleaved PARP.
Exposure of OVCAR-3 or A2780 cells to MPL (0, 5, 10, 25 μM) for 24, 48 or 72 h causes cleavage of PARP, which leads to cellular disassembly and serves as a marker of dying cells.
(§2) Protein expression in cells was determined using western blot analysis. After treatment with the indicated concentrations of MPL, cell lysates were prepared and probed with antibodies for cdk2, cdk4, cyclin A, cyclin E, PARP-1 (1:1000 dilutions; Cell Signalling Technology), and p53 (1:200 dilutions; Santa Cruz Biotechnology).
To investigate whether the MPL-induced cell death involves cleavage of PARP, western blot analysis of lysates of MPL-treated cells for PARP-1 and cleaved PARP-1 was carried out. Cleavage of PARP-1 promotes apoptosis by preventing DNA-repair-induced survival.

OVCAR-3 or A2780 cells = experiment: Cellular ATP and ADP/ATP ratio; format: cell-based, human
Method: ADP and ATP levels in the media were measured using the commercial colorimetric/fluorometric assay kits from Abcam together with the ApoGlow assay kit from Lonza (Sydney, Australia subsidary). Each value represents mean+s.e.m. of at least two determinations.

[3] = tested on: NF-κB signal transduction pathway in LPS-stimulated RAW 264.7 cells; experiment: NF-κB signal transduction in LPS-stimulated macrophages; format: cell-based
Text: LPS-stimulated RAW 264.7 cells macrophages were used as an in vitro model system for inflammation.

PET cells (mesothelioma) = experiment: SRB cell proliferation assay, PET; format: cell-based; conditions: for IC50: PET
Method: as §1

A2780 cells = experiment: SRB cell proliferation assay, A2780; format: cell-based, human
Method: as §1

OVCAR-3 tumors = experiment: s.c. OVCAR-3 xenograft growth in nude mice; format: in vivo, female nude mice
Method: 2.5 million log-phase growing OVCAR-3 cells were injected s.c. into the left flank of each mouse. Tumor growth was monitored by caliper measurements and tumor volumes were determined through measuring orthogonal diameters. Estimated tumor volume was calculated based on the formula ½ (Length×Width2), where width is the shorter of the two orthogonal measurements. Treatment was initiated 7 days post tumor cell injection before which, mice were randomized and assigned to treatment or the control group (6 per group). […] Control group were treated with the vehicle only.
Log-phase growing OVCAR-3 cells were injected s.c. into the left flank of each mouse. Tumor growth was monitored by caliper measurements and tumor volumes were determined through measuring orthogonal diameters. Estimated tumor volume was calculated based on the formula ½ (Length×Width2), where width is the shorter of the two orthogonal measurements. Treatment was initiated 7 days post tumor cell injection before which, mice were randomized and assigned to treatment or the control group (6 per group). […] Control group were treated with the vehicle only.
OVCAR-3 cells were injected s.c. into the left flank of each mouse. Tumor growth was monitored by caliper measurements and tumor volumes were determined of orthogonal diameters, and the estimated tumor volume was calculated based on the formula ½ (Length×Width2), where width is the shorter of the two orthogonal measurements. Treatment was initiated 7 days post tumor cell injection before which, mice were randomized and assigned to treatment or the control group (6 per group). […] Control group were treated orally with the vehicle only.
Mice were inoculated in the left flank with 2.5 million log-phase growing human OVCAR-3 cells. Tumor growth was monitored by caliper measurements and tumor volumes were determined through measuring orthogonal diameters. Estimated tumor volume was calculated based on the formula ½ (Length×Width2), where width is the shorter of the two orthogonal measurements. Treatment was initiated 7 days post tumor cell injection before which, mice were randomized and assigned to treatment or the control group (5-6 per group).
Female nude mice (6 weeks old) were purchased from Biological Resources (Faculty of Medicine, University of New South Wales). An institutional animal ethics approval covered all procedures carried out on mice. […] Animals were weighed once weekly while their tumor volumes were determined twice weekly. Tumor growth was monitored by caliper measurements of orthogonal diameters, and the estimated tumor volume was calculated based on the formula ½ (Length×Width^2), where width is the shorter of the two orthogonal measurements. Based on institutional ethics approval, mice were euthanized before the tumor volume reached 500 mm^3. Treatment was initiated on day 8 after tumor cell injection when mice were randomized and assigned to treatment or the control group (6 per group). Monepantel was suspended in sterile 0.5% (w/v) hydroperoxymethyl cellulose (HPMC). Drug was administered i.p. 3 times weekly at 25 or 50 mg/kg. Control group was treated with sterile vehicle (0.5% HPMC). Mice were treated for a period of 3 weeks. Twenty four hours post-last drug administration, mice were euthanized and their tumors excised and frozen at −80° C. until analysis.
In alternative experiments, treatment was initiated on day 8 post tumor cell inoculation when mice were randomized and assigned to one of MPL or vehicle treated groups (5-6 mice per group). MPL was suspended in hydroperoxy methylcellulose (0.5% w/v HPMC), sterilized by sonnicator and administered every other day either intraperitoneally (i.p) or orally as gavage (100 μL).

[4] = tested on: cdk2, cdk4, cyclins A, and E; experiment: Western blot of cell cycle regulatory proteins; format: cell-based; conditions: MPL 0, 5, 10, 25 μM
Method: (§3) Whole-protein extracts were obtained and separated by electrophoresis and immunoblots were probed with the indicated antibodies. Western blot analysis showing the levels of these proteins in each extract was analysed using the relevant antibodies. The image represents the exposed radiographic film scanned. The house-keeping gene (GAPDH) was used to confirm similar protein loading and blot transfer.
as §3, with “electrophoresis,” for “electrophoresis”
as §2

nicotinic receptors = experiment: MPL antiproliferative effect after pre-treatment with nicotinic agonists or antagonists; format: cell-based; conditions: MPL 5 μM, 72 h; 30 min pre-treatment
Method: Cells were pre-treated (30 min) with increasing concentrations of nicotine, carbachol or the receptor antagonists, atropine, mecamylamine, tubocurarine, and α-bungarotoxin. MPL (5 μM) was added and left in the cell culture incubator for 72 h. Each drug concentration was tested in quadruplicate and each experiment was repeated twice. Combine values (mean±SEM) are presented as % control.
In brief, MPL and MPL-SO2 were tested in vitro against a wide range of cancer cell-lines with extensively different disease characteristics. For further detailed studies, human ovarian cancer cell lines OVCAR-3 and A2780 were chosen. Additionally, normal human ovarian surface epithelial cells (HOSE) and were cultured in the presence of MPL (0, 5, 10, 25, 50 and 100 μM) for 72 h. Cell viability was assessed using Trypan blue assay (FIG. 9). Similarly, effect of MPL on the growth of normal epithelial, endothelial, embryonic and fetal cells were investigated (FIG. 10) while cell proliferation was assessed using the SRB assay (FIG. 11). Control (vehicle treated) cells were taken to present 100% proliferation and the MPL treated groups are expressed as percentage of control±SEM. Each drug concentration was tested in quadruplicate and each experiment was repeated at least twice. For statistical comparisons, each drug treated group is compared to the control group using Student's t test. […]

C[C@](C#N)(COc1cc(C#N)ccc1C(F)(F)F)NC(=O)c1ccc(SC(F)(F)F)cc1 [MPL, N-[(1S)-1-Cyano-2-(5-cyano-2-trifluoromethyl-phenoxy)-1-methyl-ethyl]-4-trifluoromethylsulfanyl-benzamide]
IC50 ([1]; HEK (Table 2), read-out: IC50 in suppressing proliferation): 34.6 ± 0.86 µM | IC50 ([1]; HEK, 72 h, SRB assay (Table 1), read-out: IC50): 50.5 µM | IC50 (1A9 cells; 1A9, ovarian cancer (Table 2), read-out: IC50 in suppressing proliferation): 2.5 ± 0.45 µM | IC50 (1A9 cells; 1A9, ovarian cancer, 72 h, SRB assay (Table 1), read-out: IC50): 1.8 µM | cleavage of PARP [2]: PARP was cleaved; also recorded: highly induced cleavage of PARP | cellular ATP levels (OVCAR-3 or A2780 cells): reduction in ATP levels | IKK phosphorylation [3]: inhibitory effect | IL-6 expression [3]: down regulation of IL-6 expression | IκB-α phosphorylation [3]: inhibitory effect | NF-κB p65 phosphorylation [3]: inhibitory effect | NO expression [3]: abrogates NO expression | TGF-β expression [3]: down regulation of TGF-β expression | NF-κB activation ([3]; immunocytochemistry and Western blot): decreased NF-κB activation | IC50 (PET cells (mesothelioma); mesothelioma (Table 2), read-out: IC50 in suppressing proliferation): 26 µM | IC50 (PET cells (mesothelioma); mesothelioma, 72 h, SRB assay (Table 1), read-out: IC50): 26.3 µM | replication of PET cells (PET cells (mesothelioma); highly resistant to chemotherapy): profoundly suppressed | IC50 (A2780 cells; A2780, human epithelial ovarian cancer (Table 3), read-out: IC50 μM A2780): 11.3 ± 0.9 µM | IC50 (A2780 cells; Homo sapiens, A2780, ovarian cancer, 72 h, SRB assay (Table 1), read-out: IC50): 10 µM | tumor growth, initial trial (OVCAR-3 tumors; 25 mg/kg i.p., three times weekly (trial with 2.5 or 25 mg/kg)): particularly effective | tumor growth (OVCAR-3 tumors; 50 mg/kg dose (both i.p. and oral), three times weekly): profoundly retarding tumor growth | tumor growth, second trial (OVCAR-3 tumors; 50 mg/kg i.p. (trial with 25 and 50 mg/kg)): more effective in retarding tumor growth | doses at which anticancer effects are observed in animal models (OVCAR-3 tumors; animal models): 5 to 50 mg/kg | tumor histology (OVCAR-3 tumors; tumor tissue from the in vivo trials): massive areas of tumor cell death; also recorded: extensive necrosis | expression of cell cycle regulatory proteins cdk2, cdk4, cyclins A and E [4]: lower levels of cdk2, cdk4, cyclins A, and E | MPL-induced inhibition after pre-treatment with nicotinic agonists or antagonists (nicotinic receptors): neither positively nor negatively affected
